Test results reported in ChEMBL document CHEMBL1764973 (J Med Chem, 2011).

Assays:
[1] = Binding affinity to benzodiazepine binding site of GABAA receptor
Cannabinoid receptor 2 = Cannabinoid receptor 2 (Homo sapiens, UniProt P34972); experiment: Displacement of [3H]CP55940 from CB2 receptor
Cannabinoid receptor 1 = Cannabinoid receptor 1 (Homo sapiens, UniProt P21554); experiment: Displacement of [3H]CP55940 from CB1 receptor
Translocator protein = Translocator protein (Rattus norvegicus, UniProt P16257)
Chain of Translocator protein (P16257 whole entry, looked up): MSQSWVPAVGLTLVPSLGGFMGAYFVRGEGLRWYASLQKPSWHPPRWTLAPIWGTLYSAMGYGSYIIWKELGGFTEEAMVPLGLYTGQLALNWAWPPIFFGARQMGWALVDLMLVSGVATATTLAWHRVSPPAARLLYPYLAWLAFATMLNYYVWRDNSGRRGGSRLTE

[2] = target: Muscarinic acetylcholine receptor M3 (Homo sapiens) (UniProt P20309); details: 10 uM
[3] = target: Sodium-dependent dopamine transporter (Homo sapiens) (UniProt Q01959); details: 10 uM
[4] = target: Histamine H4 receptor (Homo sapiens) (UniProt Q9H3N8); details: 10 uM
[5] = target: 5-hydroxytryptamine receptor 1E (Homo sapiens) (UniProt P28566); details: 10 uM
[6] = target: 5-hydroxytryptamine receptor 5A (Homo sapiens) (UniProt P47898); details: 10 uM
[7] = target: D(3) dopamine receptor (Homo sapiens) (UniProt P35462); details: 10 uM
[8] = target: Vasopressin V2 receptor (Homo sapiens) (UniProt P30518); details: 10 uM
Chain of Vasopressin V2 receptor (Homo sapiens) (P30518 whole entry): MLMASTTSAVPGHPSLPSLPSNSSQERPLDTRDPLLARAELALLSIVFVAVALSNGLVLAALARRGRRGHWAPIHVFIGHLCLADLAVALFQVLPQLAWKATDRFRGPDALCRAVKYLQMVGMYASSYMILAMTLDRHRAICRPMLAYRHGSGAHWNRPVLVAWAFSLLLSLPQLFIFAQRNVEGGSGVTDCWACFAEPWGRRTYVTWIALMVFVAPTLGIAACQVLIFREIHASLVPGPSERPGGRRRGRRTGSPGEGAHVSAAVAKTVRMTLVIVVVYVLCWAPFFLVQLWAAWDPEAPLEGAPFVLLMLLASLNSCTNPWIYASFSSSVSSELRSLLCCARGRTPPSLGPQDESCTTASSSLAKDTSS

[9] = target: 5-hydroxytryptamine receptor 1A (Homo sapiens) (UniProt P08908); details: 10 uM
[10] = target: 5-hydroxytryptamine receptor 2B (Homo sapiens) (UniProt P41595); details: 10 uM
[11] = target: Histamine H1 receptor (Homo sapiens) (UniProt P35367); details: 10 uM
[12] = target: Vasopressin V1b receptor (Homo sapiens) (UniProt P47901); details: 10 uM
[13] = target: 5-hydroxytryptamine receptor 7 (Homo sapiens) (UniProt P34969); details: 10 uM
Chain of 5-hydroxytryptamine receptor 7 (Homo sapiens) (P34969 whole entry): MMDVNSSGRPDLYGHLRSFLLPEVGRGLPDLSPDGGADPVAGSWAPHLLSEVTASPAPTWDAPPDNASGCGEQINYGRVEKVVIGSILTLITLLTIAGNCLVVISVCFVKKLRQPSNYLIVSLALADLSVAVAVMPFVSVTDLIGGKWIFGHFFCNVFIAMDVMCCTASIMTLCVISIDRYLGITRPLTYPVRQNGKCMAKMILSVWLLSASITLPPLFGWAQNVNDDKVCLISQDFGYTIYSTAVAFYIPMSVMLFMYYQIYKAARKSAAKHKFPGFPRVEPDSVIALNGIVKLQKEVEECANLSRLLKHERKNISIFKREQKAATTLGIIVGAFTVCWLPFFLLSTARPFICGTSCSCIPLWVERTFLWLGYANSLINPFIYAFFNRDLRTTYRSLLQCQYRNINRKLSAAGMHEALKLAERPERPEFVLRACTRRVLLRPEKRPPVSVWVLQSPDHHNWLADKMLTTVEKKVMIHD

[14] = target: Kappa-type opioid receptor (Homo sapiens, UniProt P41145); experiment: Binding affinity to kappa opioid receptor by radioligand binding assay
Chain of Kappa-type opioid receptor (P41145 whole entry): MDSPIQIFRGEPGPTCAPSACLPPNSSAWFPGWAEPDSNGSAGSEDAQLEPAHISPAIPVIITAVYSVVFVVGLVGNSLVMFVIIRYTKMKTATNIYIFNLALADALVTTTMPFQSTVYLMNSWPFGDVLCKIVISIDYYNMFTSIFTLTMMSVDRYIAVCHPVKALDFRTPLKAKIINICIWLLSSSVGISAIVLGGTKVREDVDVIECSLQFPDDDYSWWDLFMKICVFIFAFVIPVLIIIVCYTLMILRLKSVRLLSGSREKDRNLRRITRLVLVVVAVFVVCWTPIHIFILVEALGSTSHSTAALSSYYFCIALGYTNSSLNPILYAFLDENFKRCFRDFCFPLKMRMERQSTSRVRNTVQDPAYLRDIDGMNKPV

[15] = target: Delta-type opioid receptor (Homo sapiens) (UniProt P41143); details: 10 uM
Chain of Delta-type opioid receptor (Homo sapiens) (P41143 whole entry): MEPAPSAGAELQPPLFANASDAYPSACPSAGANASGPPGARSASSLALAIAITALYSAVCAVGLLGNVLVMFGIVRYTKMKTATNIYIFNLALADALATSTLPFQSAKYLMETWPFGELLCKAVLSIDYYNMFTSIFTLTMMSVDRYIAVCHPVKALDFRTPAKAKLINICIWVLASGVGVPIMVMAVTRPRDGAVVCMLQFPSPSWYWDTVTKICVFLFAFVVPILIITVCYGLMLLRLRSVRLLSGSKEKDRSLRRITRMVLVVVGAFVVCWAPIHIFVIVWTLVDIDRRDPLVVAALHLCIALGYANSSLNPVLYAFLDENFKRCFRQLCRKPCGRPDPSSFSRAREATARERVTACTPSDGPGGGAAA

[16] = target: Alpha-1B adrenergic receptor (Homo sapiens) (UniProt P35368); details: 10 uM
[17] = target: Alpha-2B adrenergic receptor (Homo sapiens) (UniProt P18089); details: 10 uM
[18] = target: Alpha-2A adrenergic receptor (Homo sapiens) (UniProt P08913); details: 10 uM
[19] = target: Muscarinic acetylcholine receptor M4 (Homo sapiens) (UniProt P08173); details: 10 uM
Chain of Muscarinic acetylcholine receptor M4 (Homo sapiens) (P08173 whole entry): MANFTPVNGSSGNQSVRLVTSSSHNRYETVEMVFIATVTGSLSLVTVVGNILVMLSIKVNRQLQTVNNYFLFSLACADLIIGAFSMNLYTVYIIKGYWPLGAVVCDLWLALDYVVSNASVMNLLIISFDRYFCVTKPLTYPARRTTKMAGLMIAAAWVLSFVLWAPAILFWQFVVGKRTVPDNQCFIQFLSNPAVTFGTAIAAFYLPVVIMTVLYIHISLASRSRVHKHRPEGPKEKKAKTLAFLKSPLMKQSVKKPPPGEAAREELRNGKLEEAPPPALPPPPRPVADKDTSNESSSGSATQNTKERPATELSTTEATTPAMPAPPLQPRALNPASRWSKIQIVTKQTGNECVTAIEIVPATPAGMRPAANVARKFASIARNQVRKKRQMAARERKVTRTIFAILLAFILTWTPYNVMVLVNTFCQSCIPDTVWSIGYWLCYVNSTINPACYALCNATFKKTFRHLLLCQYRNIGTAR

[20] = target: Sodium-dependent noradrenaline transporter (Homo sapiens) (UniProt P23975); details: 10 uM
[21] = target: Alpha-2C adrenergic receptor (Homo sapiens) (UniProt P18825); details: 10 uM
[22] = target: 5-hydroxytryptamine receptor 3A (Homo sapiens) (UniProt P46098); details: 10 uM
[23] = target: Histamine H3 receptor (Homo sapiens) (UniProt Q9Y5N1); details: 10 uM
[24] = target: 5-hydroxytryptamine receptor 6 (Homo sapiens) (UniProt P50406); details: 10 uM
[25] = target: Beta-1 adrenergic receptor (Homo sapiens) (UniProt P08588); details: 10 uM
D(1B) dopamine receptor = D(1B) dopamine receptor (Homo sapiens, UniProt P21918); experiment: Binding affinity to opamine D5 receptor by radioligand binding assay
[26] = target: T1, 5-hydroxytryptamine receptor 1D (Homo sapiens, UniProt P28221); experiment: Binding affinity to 5HT1D receptor by radioligand binding assay
T1 sequence (P28221 whole entry): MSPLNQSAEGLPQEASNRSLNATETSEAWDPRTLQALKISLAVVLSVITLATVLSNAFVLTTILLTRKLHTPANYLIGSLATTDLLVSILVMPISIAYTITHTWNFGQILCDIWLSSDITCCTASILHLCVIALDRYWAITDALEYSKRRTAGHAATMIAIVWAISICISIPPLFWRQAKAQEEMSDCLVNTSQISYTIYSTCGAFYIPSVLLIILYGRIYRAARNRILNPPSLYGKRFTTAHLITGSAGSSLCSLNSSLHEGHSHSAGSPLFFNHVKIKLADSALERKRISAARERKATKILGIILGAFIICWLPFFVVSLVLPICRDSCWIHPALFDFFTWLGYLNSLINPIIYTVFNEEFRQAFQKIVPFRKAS

[27] = target: Sodium-dependent serotonin transporter (Homo sapiens) (UniProt P31645); details: 10 uM
[28] = target: Beta-3 adrenergic receptor (Homo sapiens) (UniProt P13945); details: 10 uM
[29] = target: Muscarinic acetylcholine receptor M5 (Homo sapiens) (UniProt P08912); details: 10 uM
[30] = target: Mu-type opioid receptor (Homo sapiens) (UniProt P35372); details: 10 uM
[31] = target: Muscarinic acetylcholine receptor M2 (Homo sapiens) (UniProt P08172); details: 10 uM
[32] = target: 5-hydroxytryptamine receptor 2A (Homo sapiens) (UniProt P28223); details: 10 uM
Chain of 5-hydroxytryptamine receptor 2A (Homo sapiens) (P28223 whole entry): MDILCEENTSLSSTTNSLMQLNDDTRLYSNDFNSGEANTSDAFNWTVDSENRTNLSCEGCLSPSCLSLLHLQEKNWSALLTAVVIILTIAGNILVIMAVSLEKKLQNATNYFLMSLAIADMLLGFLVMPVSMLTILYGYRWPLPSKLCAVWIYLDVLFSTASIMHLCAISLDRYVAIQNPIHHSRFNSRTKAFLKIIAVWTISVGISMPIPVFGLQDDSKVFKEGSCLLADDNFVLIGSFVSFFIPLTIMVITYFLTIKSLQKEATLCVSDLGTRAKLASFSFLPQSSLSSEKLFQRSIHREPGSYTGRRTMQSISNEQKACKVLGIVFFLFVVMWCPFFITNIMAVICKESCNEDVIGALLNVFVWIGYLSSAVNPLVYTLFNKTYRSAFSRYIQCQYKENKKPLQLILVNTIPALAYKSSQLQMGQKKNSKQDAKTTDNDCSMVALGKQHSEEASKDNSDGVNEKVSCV

[33] = target: D(4) dopamine receptor (Homo sapiens) (UniProt P21917); details: 10 uM
[34] = target: Sigma non-opioid intracellular receptor 1 (Homo sapiens) (UniProt Q99720); details: 10 uM
[35] = target: T1, 5-hydroxytryptamine receptor 1D; details: 10 uM
[36] = target: Muscarinic acetylcholine receptor M1 (Homo sapiens) (UniProt P11229); details: 10 uM
[37] = target: D(1A) dopamine receptor (Homo sapiens) (UniProt P21728); details: 10 uM
[38] = target: Vasopressin V1a receptor (Homo sapiens) (UniProt P37288); details: 10 uM
Chain of Vasopressin V1a receptor (Homo sapiens) (P37288 whole entry, looked up): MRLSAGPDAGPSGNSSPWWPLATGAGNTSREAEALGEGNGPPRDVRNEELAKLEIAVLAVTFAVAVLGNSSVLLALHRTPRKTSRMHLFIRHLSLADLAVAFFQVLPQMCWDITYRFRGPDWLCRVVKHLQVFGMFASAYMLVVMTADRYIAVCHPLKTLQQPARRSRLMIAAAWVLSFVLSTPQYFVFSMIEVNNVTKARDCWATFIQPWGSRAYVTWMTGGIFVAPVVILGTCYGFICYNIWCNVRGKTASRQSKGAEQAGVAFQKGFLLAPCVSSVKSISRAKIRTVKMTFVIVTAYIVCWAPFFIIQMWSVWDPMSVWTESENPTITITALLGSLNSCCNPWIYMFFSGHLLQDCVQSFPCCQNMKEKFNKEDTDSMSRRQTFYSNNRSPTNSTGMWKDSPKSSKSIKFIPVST

[39] = target: Histamine H2 receptor (Homo sapiens) (UniProt P25021); details: 10 uM
Chain of Histamine H2 receptor (Homo sapiens) (P25021 whole entry): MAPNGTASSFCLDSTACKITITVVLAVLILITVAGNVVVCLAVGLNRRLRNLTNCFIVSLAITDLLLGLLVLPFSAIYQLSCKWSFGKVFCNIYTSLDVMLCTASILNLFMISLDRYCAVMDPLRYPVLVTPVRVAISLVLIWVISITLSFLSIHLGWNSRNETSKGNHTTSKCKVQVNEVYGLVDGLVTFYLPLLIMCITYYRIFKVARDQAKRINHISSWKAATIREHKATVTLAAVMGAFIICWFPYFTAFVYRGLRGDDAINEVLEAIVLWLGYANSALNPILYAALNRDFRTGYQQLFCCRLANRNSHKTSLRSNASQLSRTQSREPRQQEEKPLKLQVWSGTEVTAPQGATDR

[40] = target: D(2) dopamine receptor (Homo sapiens) (UniProt P14416); details: 10 uM
[41] = target: Alpha-1A adrenergic receptor (Homo sapiens) (UniProt P35348); details: 10 uM
[42] = target: 5-hydroxytryptamine receptor 2C (Homo sapiens) (UniProt P28335); details: 10 uM

Chain of Cannabinoid receptor 2 (P34972 whole entry): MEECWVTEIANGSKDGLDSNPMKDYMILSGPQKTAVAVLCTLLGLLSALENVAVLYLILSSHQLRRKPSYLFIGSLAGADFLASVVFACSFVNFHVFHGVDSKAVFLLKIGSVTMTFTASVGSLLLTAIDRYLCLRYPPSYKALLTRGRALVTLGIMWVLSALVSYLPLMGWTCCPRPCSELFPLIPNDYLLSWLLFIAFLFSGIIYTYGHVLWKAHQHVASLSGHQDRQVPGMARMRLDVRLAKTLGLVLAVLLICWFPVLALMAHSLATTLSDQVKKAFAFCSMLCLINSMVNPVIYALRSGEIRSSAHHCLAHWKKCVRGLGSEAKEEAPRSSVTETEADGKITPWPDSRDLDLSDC
Chain of Cannabinoid receptor 1 (P21554 whole entry): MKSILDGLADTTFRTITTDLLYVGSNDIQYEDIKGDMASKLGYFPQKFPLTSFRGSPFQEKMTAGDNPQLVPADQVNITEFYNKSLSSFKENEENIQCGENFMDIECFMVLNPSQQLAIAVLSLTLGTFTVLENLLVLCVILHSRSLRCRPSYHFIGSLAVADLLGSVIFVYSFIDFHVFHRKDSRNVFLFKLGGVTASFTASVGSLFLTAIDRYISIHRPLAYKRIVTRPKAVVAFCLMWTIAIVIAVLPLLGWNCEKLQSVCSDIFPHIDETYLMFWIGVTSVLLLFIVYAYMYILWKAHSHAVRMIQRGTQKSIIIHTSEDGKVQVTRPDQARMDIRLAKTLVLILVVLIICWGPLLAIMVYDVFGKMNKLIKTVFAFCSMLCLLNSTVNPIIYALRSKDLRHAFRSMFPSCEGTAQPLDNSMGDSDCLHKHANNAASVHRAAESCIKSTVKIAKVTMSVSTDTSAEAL

Structure (SMILES): Cc1c(C(=O)NC2(C#N)CCOCC2)nn(-c2ccccc2F)c1-c1ccccc1
- Ki [1]: > 10 µM

Structure (SMILES): COc1ccc(-c2c(C)c(C(=O)NC3(C#N)CCOCC3)nn2-c2ccccc2F)cc1
- Ki [1]: > 10 µM
- Ki (Cannabinoid receptor 2): 2.46 µM
- Ki (Cannabinoid receptor 1): 0.115 µM

Structure (SMILES): Cc1c(C(=O)NC2(C#N)CCOCC2)nn(-c2ccccc2I)c1-c1ccccc1
- Ki [1]: > 10 µM

Structure (SMILES): COc1ccc(-c2c(Br)c(C(=O)NC3(C#N)CCOCC3)nn2-c2cccc(Br)c2)cc1
- Ki [1]: > 10 µM

Structure (SMILES): Cc1c(C(=O)NC2(C#N)CCOCC2)nn(-c2ccccc2Br)c1-c1ccccc1
- Ki [1]: > 10 µM

Structure (SMILES): COc1ccc(-c2c(C)c(C(=O)NC3(C#N)CCOCC3)nn2-c2cccc(Br)c2)cc1
- Ki [1]: > 10 µM
- Ki (Cannabinoid receptor 2): 0.234 µM
- Ki (Cannabinoid receptor 1): 0.68 µM

Structure (SMILES): Cc1c(C(=O)NC2(C#N)CCOCC2)nn(-c2ccccc2Br)c1-c1cccc(F)c1
- Ki [1]: > 10 µM
- Ki (Cannabinoid receptor 2): > 10 µM
- Ki (Cannabinoid receptor 1): > 10 µM

Structure (SMILES): CCC(C)N(C)C(=O)c1cc2ccccc2c(-c2ccccc2Cl)n1 (stereo not drawn) [PK-11195]
- Ki [1]: > 10 µM

Structure (SMILES): Cc1c(C(=O)NC2(C#N)CCOCC2)nn(-c2ccccc2Br)c1-c1ccc(F)cc1
- Ki [1]: > 10 µM

Structure (SMILES): Cc1c(C(=O)NC2(C#N)CCOCC2)nn(-c2ccc(Br)cc2)c1-c1ccccc1
- Ki [1]: > 10 µM
- Ki (Cannabinoid receptor 2): 0.655 µM
- Ki (Cannabinoid receptor 1): 0.259 µM

Structure (SMILES): N#Cc1c(C(=O)NC2(C#N)CCOCC2)nn(-c2ccccc2Br)c1-c1ccccc1
- Ki (Translocator protein): 3.69 µM
- Ki [1]: > 10 µM
- Ki (Cannabinoid receptor 2): > 10 µM
- Ki (Cannabinoid receptor 1): 0.437 µM

Structure (SMILES): Cc1c(C(=O)NC2(C#N)CCOCC2)nn(-c2ccccc2-c2ccccc2)c1-c1ccccc1
- Ki [1]: > 10 µM

Structure (SMILES): COc1ccc(-c2c(C#N)c(C(=O)NC3(C#N)CCOCC3)nn2-c2ccccc2I)cc1
- Ki (Translocator protein): 1.92 µM
- Ki [1]: > 10 µM
- Ki (Cannabinoid receptor 2): 2.37 µM
- Ki (Cannabinoid receptor 1): > 10 µM

Structure (SMILES): Cc1c(C(=O)NN2CCCCC2)nn(-c2ccc(Cl)cc2Cl)c1-c1ccc(Cl)cc1 [RIMONABANT]
- Ki [1]: > 10 µM

Structure (SMILES): Cc1c(C(=O)NC2(C#N)CCOCC2)nn(-c2ccccc2Cl)c1-c1ccccc1
- Ki (Translocator protein): 0.436 µM
- Ki [1]: > 10 µM
- Ki (Cannabinoid receptor 2): > 10 µM
- Ki (Cannabinoid receptor 1): > 10 µM

Structure (SMILES): COc1ccc(-c2c(C)c(C(=O)NC3(C#N)CCCCC3)nn2-c2ccccc2Br)cc1
- inhibition [2]: < 50%
- inhibition [3]: < 50%
- inhibition [4]: < 50%
- inhibition [5]: < 50%
- inhibition [6]: < 50%
- inhibition [7]: < 50%
- Ki (Translocator protein): 0.279 µM
- inhibition [8]: < 50%
- inhibition [9]: < 50%
- inhibition [10]: < 50%
- inhibition [11]: < 50%
- Ki [1]: > 10 µM
- inhibition [12]: < 50%
- inhibition [13]: < 50%
- Ki (Cannabinoid receptor 2): 2.75 µM
- Ki [14]: 0.597 µM
- inhibition [15]: < 50%
- inhibition [16]: < 50%
- inhibition [17]: < 50%
- inhibition [18]: < 50%
- Ki (Cannabinoid receptor 1): 0.0157 µM
- inhibition [19]: < 50%
- inhibition [20]: < 50%
- inhibition [21]: < 50%
- inhibition [22]: < 50%
- inhibition [23]: < 50%
- inhibition [24]: < 50%
- inhibition [25]: < 50%
- Ki (D(1B) dopamine receptor): > 10 µM
- Ki [26]: > 10 µM
- inhibition [27]: < 50%
- inhibition [28]: < 50%
- inhibition [29]: < 50%
- inhibition [30]: < 50%
- inhibition [31]: < 50%
- inhibition [32]: < 50%
- inhibition [33]: < 50%
- inhibition [34]: < 50%
- inhibition [35]: < 50%
- inhibition [36]: < 50%
- inhibition [37]: < 50%
- inhibition [38]: < 50%
- inhibition [39]: < 50%
- inhibition [40]: < 50%
- inhibition [41]: < 50%
- inhibition [42]: < 50%

Structure (SMILES): N#CC1(NC(=O)c2cc(-c3ccccc3)n(-c3ccccc3Br)n2)CCOCC1
- Ki (Translocator protein): 3.11 µM
- Ki [1]: > 10 µM
- Ki (Cannabinoid receptor 2): > 10 µM
- Ki (Cannabinoid receptor 1): 0.297 µM

Structure (SMILES): Cc1c(C(=O)N(C)C2(C#N)CCOCC2)nn(-c2ccccc2Cl)c1-c1ccccc1
- Ki (Translocator protein): 0.88 µM
- Ki [1]: > 10 µM
- Ki (Cannabinoid receptor 2): > 10 µM
- Ki (Cannabinoid receptor 1): > 10 µM

Structure (SMILES): Cc1c(C(=O)NC2(C#N)CCCCC2)nn(-c2ccccc2Br)c1-c1ccccc1
- Ki [1]: > 10 µM

Structure (SMILES): Cc1c(C(=O)NC2(C#N)CCOCC2)nn(-c2cccc(Br)c2)c1-c1ccccc1
- Ki [1]: > 10 µM
